From the supplement of paper PMC11208160 come the findings set out here.

This series in a line: recombinant UMI read abundance after kanamycin selection (control-corrected) (log10(CPM+1)); higher = more efficient recombination; extreme values may be limits of the assay; sequences stand for … in AGTGCAGAGAAAATCGGCCAGTTTTCTCTGCCTGCAGTCCGCATGCCGTGGGACCCCTTGGGTTCTAACCTGTTGCCTAGATTTATGCAGCGGACTGCCTTTCTCCCAAAGTGATAAACCGG…AGGTTGGTTTCACT; site = the 11-nt donor. The method, boiled down: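 Pooled Escherichia coli screen of donor and donor-binding-loop pairs for the IS621 bridge recombinase. Each pair sits with a 12-nt UMI on a plasmid carrying a promoterless kanamycin gene. The library was co-electroporated with a target plasmid encoding a fixed target and T7-inducible recombinase, then plated with IPTG (0.07 mM) plus kanamycin, or unselected, each in two replicates. Recombinant UMIs were PCR-amplified across the donor–target junction and sequenced. Counts became CPM, averaged over replicates, scaled by control-derived factors and reported as log10(CPM+1).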
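Also: IS621 bridge recombinase in Escherichia coli cells against a fixed T5 target plasmid.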

For the sequence “AGCTCGGCATGGACCGGTTTTCCCGGTAATCCGTATTTGGG (site AGCTCTGCTCC)”, the “recombinant UMI read abundance (log10)” value turned out to be 0. Take “AGCTCTACATGGACCGGTTTTCCCGGTAATCCGTATTTGAA (site AGCTCTACTTT)”: the “recombinant UMI read abundance (log10)” value worked out at 0.

With “AGCTCTGCATGGACCGGTTTTCCCGGTAATCCGTATTTGGT (site AGCTCTGCTAC)”, the “recombinant UMI read abundance (log10)” value was 1.36. With “AGCTGAGCATGGACCGGTTTTCCCGGTAATCCGTATTTGCC (site AGCTGAGCTGG)” the figure was 0.908. As to “AGCTTGCCATGGACCGGTTTTCCCGGTAATCCGTATTTGGC (site AGCTTGCCTGC)”, the “recombinant UMI read abundance (log10)” value was found to be 0. Next, “AGCTTGTCATGGACCGGTTTTCCCGGTAATCCGTATTTGAG (site AGCTTGTCTCT)”: 1.62; “AGGAAATCATGGACCGGTTTTCCCGGTAATCCGTATTTGCA (site AGGAAATCTTG)”: 1.9; “AGGAAATCATGGACCGGTTTTCCCGGTAATCCGTATTTGCA (site AGGAAGACTTG)”: 0. Next, “AGGAAATCATGGACCGGTTTTCCCGGTAATCCGTATTTGGT (site AGGAAATCTAC)”: 1.73; “AGGAAGACATGGACCGGTTTTCCCGGTAATCCGTATTTGCG (site AGGAAGACTAG)”: 0.0723. With “AGGAAGACATGGACCGGTTTTCCCGGTAATCCGTATTTGCG (site AGGAAGACTCG)” the figure was 2.32. On to “AGGAAGACATGGACCGGTTTTCCCGGTAATCCGTATTTGCG (site AGGAAGACTGG)”, for which the “recombinant UMI read abundance (log10)” value stood at 0. Next, “AGGAAGACATGGACCGGTTTTCCCGGTAATCCGTATTTGCG (site AGGAAGACTTG)”: 1.73; “AGGAATACATGGACCGGTTTTCCCGGTAATCCGTATTTGCT (site AGGAAGACTTG)”: 0. Next, “AGGAATACATGGACCGGTTTTCCCGGTAATCCGTATTTGCT (site AGGAATACTAG)”: 2.18. In the case of “AGGAATCCATGGACCGGTTTTCCCGGTAATCCGTATTTGTA (site AGGAATCCTTA)”, the “recombinant UMI read abundance (log10)” value was determined as 0.615. Next, “AGGAATCCATGGACCGGTTTTCCCGGTAATCCGTATTTGTA (site CGGAATCCTAA)”: 0.00925; “AGGACACCATGGACCGGTTTTCCCGGTAATCCGTATTTGTA (site AGGACACCTTA)”: 0.189. With “AGGACATCATGGACCGGTTTTCCCGGTAATCCGTATTTGCT (site AGGACATCTAG)” the figure was 1.48; with “AGGACATCATGGACCGGTTTTCCCGGTAATCCGTATTTGCT (site CGGACATCTAG)”, 1.01; with “AGGACATCATGGACCGGTTTTCCCGGTAATCCGTATTTGCT (site GGGACATCTAG)”, 0.0498. Next, “AGGACATCATGGACCGGTTTTCCCGGTAATCCGTATTTGCT (site TGGACATCTAG)”: 1.15; “AGGACCCCATGGACCGGTTTTCCCGGTAATCCGTATTTGGT (site AGGACCCCTAC)”: 0.297; “AGGACGGCATGGACCGGTTTTCCCGGTAATCCGTATTTGAA (site AGGACGGCTTT)”: 1.73. Take “AGGACTACATGGACCGGTTTTCCCGGTAATCCGTATTTGAC (site AAGACTACTGT)”: the “recombinant UMI read abundance (log10)” value amounted to 0.848. For “AGGACTACATGGACCGGTTTTCCCGGTAATCCGTATTTGAC (site ACGACTACTGT)”, the “recombinant UMI read abundance (log10)” value is 0.945. With “AGGACTACATGGACCGGTTTTCCCGGTAATCCGTATTTGAC (site AGAACTACTGT)” the figure was 2.18; with “AGGACTACATGGACCGGTTTTCCCGGTAATCCGTATTTGAC (site AGCACTACTGT)”, 0.0103; with “AGGACTACATGGACCGGTTTTCCCGGTAATCCGTATTTGAC (site AGGAATACTGT)”, 1.29.

For the sequence “AGGACTACATGGACCGGTTTTCCCGGTAATCCGTATTTGAC (site AGGACAACTGT)”, the “recombinant UMI read abundance (log10)” value amounted to 0.797. With “AGGACTACATGGACCGGTTTTCCCGGTAATCCGTATTTGAC (site AGGACCACTGT)” the figure was 0.969; with “AGGACTACATGGACCGGTTTTCCCGGTAATCCGTATTTGAC (site AGGACGACTGT)”, 0.00571. With “AGGACTACATGGACCGGTTTTCCCGGTAATCCGTATTTGAC (site AGGACTACTAT)” the figure was 0.00291.

Regarding “AGGACTACATGGACCGGTTTTCCCGGTAATCCGTATTTGAC (site AGGACTACTCT)”, the “recombinant UMI read abundance (log10)” value amounted to 0.0111. Next, “AGGACTACATGGACCGGTTTTCCCGGTAATCCGTATTTGAC (site AGGACTACTGA)”: 0; “AGGACTACATGGACCGGTTTTCCCGGTAATCCGTATTTGAC (site AGGACTACTGC)”: 0.68.

For “AGGACTACATGGACCGGTTTTCCCGGTAATCCGTATTTGAC (site AGGACTACTGG)”, the “recombinant UMI read abundance (log10)” value was 0.

In the case of “AGGACTACATGGACCGGTTTTCCCGGTAATCCGTATTTGAC (site AGGACTACTGT)”, the “recombinant UMI read abundance (log10)” value stood at 2.29.

Take “AGGACTACATGGACCGGTTTTCCCGGTAATCCGTATTTGAC (site AGGACTACTTT)”: the “recombinant UMI read abundance (log10)” value amounted to 0.0694. Turning to “AGGACTACATGGACCGGTTTTCCCGGTAATCCGTATTTGAC (site AGGACTCCTGT)”, the “recombinant UMI read abundance (log10)” value is 0.

For the sequence “AGGACTACATGGACCGGTTTTCCCGGTAATCCGTATTTGAC (site AGGACTGCTGT)”, the “recombinant UMI read abundance (log10)” value was found to be 0.359. Next, “AGGACTACATGGACCGGTTTTCCCGGTAATCCGTATTTGAC (site AGGACTTCTGT)”: 0.0138; “AGGACTACATGGACCGGTTTTCCCGGTAATCCGTATTTGAC (site AGGAGTACTGT)”: 0.

Turning to “AGGACTACATGGACCGGTTTTCCCGGTAATCCGTATTTGAC (site AGGATTACTGT)”, the “recombinant UMI read abundance (log10)” value was determined as 0.471.

As for “AGGACTACATGGACCGGTTTTCCCGGTAATCCGTATTTGAC (site AGGCCTACTGT)”, the “recombinant UMI read abundance (log10)” value came to 0.988. Next, “AGGACTACATGGACCGGTTTTCCCGGTAATCCGTATTTGAC (site AGGGCTACTGT)”: 0; “AGGACTACATGGACCGGTTTTCCCGGTAATCCGTATTTGAC (site AGGTCTACTGT)”: 1.2. With “AGGACTACATGGACCGGTTTTCCCGGTAATCCGTATTTGAC (site AGTACTACTGT)” the figure was 0.941; with “AGGACTACATGGACCGGTTTTCCCGGTAATCCGTATTTGAC (site ATGACTACTGT)”, 1.13. With “AGGACTACATGGACCGGTTTTCCCGGTAATCCGTATTTGAC (site CGGACTACTGT)” the figure was 0.831; with “AGGACTACATGGACCGGTTTTCCCGGTAATCCGTATTTGAC (site GGGACTACTGT)”, 0; with “AGGACTACATGGACCGGTTTTCCCGGTAATCCGTATTTGAC (site TGGACTACTGT)”, 0.901. Take “AGGACTACATGGACCGGTTTTCCCGGTAATCCGTATTTGCA (site AGGAAGACTTG)”: the “recombinant UMI read abundance (log10)” value worked out at 0. Next, “AGGACTACATGGACCGGTTTTCCCGGTAATCCGTATTTGCA (site AGGACTACTTG)”: 2.22; “AGGACTCCATGGACCGGTTTTCCCGGTAATCCGTATTTGAC (site AGGACTACTGT)”: 0. Turning to “AGGACTCCATGGACCGGTTTTCCCGGTAATCCGTATTTGAC (site AGGACTCCTGT)”, the “recombinant UMI read abundance (log10)” value worked out at 0.719. Take “AGGACTCCATGGACCGGTTTTCCCGGTAATCCGTATTTGAC (site AGGACTGCTGT)”: the “recombinant UMI read abundance (log10)” value was determined as 0. With “AGGACTCCATGGACCGGTTTTCCCGGTAATCCGTATTTGAC (site AGGACTTCTGT)” the figure was 0. Next, “AGGACTGCATGGACCGGTTTTCCCGGTAATCCGTATTTGAC (site AGGACTACTGT)”: 2.15. With “AGGACTGCATGGACCGGTTTTCCCGGTAATCCGTATTTGAC (site AGGACTCCTGT)”, the “recombinant UMI read abundance (log10)” value is 0.533. With “AGGACTGCATGGACCGGTTTTCCCGGTAATCCGTATTTGAC (site AGGACTGCTGT)” the figure was 2.92; with “AGGACTGCATGGACCGGTTTTCCCGGTAATCCGTATTTGAC (site AGGACTTCTGT)”, 0; with “AGGAGATCATGGACCGGTTTTCCCGGTAATCCGTATTTGGG (site AGGAGATCTCC)”, 0.505.

In the case of “AGGAGGCCATGGACCGGTTTTCCCGGTAATCCGTATTTGCA (site AGGAAGACTTG)”, the “recombinant UMI read abundance (log10)” value is 0. Next, “AGGAGGCCATGGACCGGTTTTCCCGGTAATCCGTATTTGCA (site AGGAGGCCTTG)”: 0.211; “AGGAGGGCATGGACCGGTTTTCCCGGTAATCCGTATTTGCC (site AGGAGGGCTGG)”: 2.16.

Take “AGGAGTGCATGGACCGGTTTTCCCGGTAATCCGTATTTGAG (site AGGAGTGCTCT)”: the “recombinant UMI read abundance (log10)” value was found to be 2.37. With “AGGATAACATGGACCGGTTTTCCCGGTAATCCGTATTTGCA (site AGGAAGACTTG)” the figure was 1.01.
